Laboratory results taken from ChEMBL document CHEMBL3576857, “Biosynthetic products from a nearshore-derived gram-negative bacterium enable reassessment of the kailuin depsipeptides” (J Nat Prod, 2015).
Active and inactive are the calls of the source. No cut-off for these calls is given here.

How the values were obtained:
Assay type in all cases: functional, cell-based
[1] = test system: MCF7; test: Cytotoxicity against human MCF7 cells
[2] = test system: HCT-116; test: Cytotoxicity against human HCT116 cells
[3] = test system: HeLa; test: Cytotoxicity against human HeLa cells assessed as effect on phenotypic features by automated microscopy and image analysis

Row | Structure (SMILES) | IC50 [1] [µM] | IC50 [2] [µM] | Activity [3]
1 | CCCCCCCCC[C@@H]1CC(=O)N[C@H](CC(C)C)C(=O)N[C@@H](CO)C(=O)N[C@@H]([C@@H](C)O)C(=O)N[C@H](CC(C)C)C(=O)N[C@@H]([C@@H](C)CC)C(=O)O1 | 3 | 22 | –
2 | CCCCCCC[C@@H]1CC(=O)N[C@H](CC(C)C)C(=O)N[C@@H](CO)C(=O)N[C@@H]([C@@H](C)O)C(=O)N[C@H](CC(C)C)C(=O)N[C@@H]([C@@H](C)CC)C(=O)O1 | 4 | – | –
3 | CC[C@H](C)[C@@H]1NC(=O)[C@@H](CC(C)C)NC(=O)[C@H]([C@@H](C)O)NC(=O)[C@H](CO)NC(=O)[C@@H](CC(C)C)NC(=O)CCNC1=O | – | > 1000 | –
4 | CC[C@H](C)[C@@H]1NC(=O)[C@@H](CC(C)C)NC(=O)[C@H]([C@@H](C)O)NC(=O)[C@H](CO)NC(=O)[C@@H](CC(C)C)NC(=O)CCC(=O)C1=O | – | > 1000 | –
5 | CCCCCCCCCCC[C@@H]1CC(=O)N[C@H](CC(C)C)C(=O)N[C@@H](CO)C(=O)N[C@@H]([C@@H](C)O)C(=O)N[C@H](CC(C)C)C(=O)N[C@@H]([C@@H](C)CC)C(=O)O1 | – | 18 | Active
6 | CC[C@H](C)[C@@H]1NC(=O)[C@@H](CC(C)C)NC(=O)[C@H]([C@@H](C)O)NC(=O)[C@H](CO)NC(=O)[C@@H](CC(C)C)NC(=O)C[C@@H](CCCCCCC(C)C)OC1=O | 6 | 50 | –
7 | CC[C@H](C)[C@@H]1NC(=O)[C@@H](CC(C)C)NC(=O)[C@H]([C@@H](C)O)NC(=O)[C@H](CO)NC(=O)[C@@H](CC(C)C)NC(=O)C[C@@H](CCCCCCCCC(C)C)OC1=O | – | 17 | –
8 | CCCCCC/C=C\CCC[C@@H]1CC(=O)N[C@H](CC(C)C)C(=O)N[C@@H](CO)C(=O)N[C@@H]([C@@H](C)O)C(=O)N[C@H](CC(C)C)C(=O)N[C@@H]([C@@H](C)CC)C(=O)O1 | 4 | 28 | Active
9 | CCCCCCCCCC[C@@H]1CC(=O)N[C@H](CC(C)C)C(=O)N[C@@H](CO)C(=O)N[C@@H]([C@@H](C)O)C(=O)N[C@H](CC(C)C)C(=O)N[C@@H]([C@@H](C)CC)C(=O)O1 | – | 32 | –
